Assay results: PubChem BioAssay (NCI)
Values joined by “and” are separate entries in the source; they are usually repeats but may differ in a detail not shown here. Identical values can stand only once.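 Dose response: 5 concentrations. Exposure: 48 h. Format: 96-well plates. Endpoint: linear interpolation; highest concentration if not reached. At the GI50, growth is halved. Definition used: TGI = concentration required for complete inhibition of growth.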

Columns and labels:
Test in all cases: growth of human tumour cells (NCI), 48 h
[1] = test system: CCRF-CEM leukemia
[2] = test system: HCC-2998 colon
[3] = test system: HS 578T breast
[4] = test system: NCI-H226 lung
[5] = test system: NCI/ADR-RES ovarian
[6] = test system: RPMI-8226 leukemia
[7] = test system: SK-MEL-2 melanoma
[8] = test system: SNB-19 CNS
[9] = test system: SW-620 colon
[10] = test system: TK-10 renal

Structure (SMILES)	GI50 [1] [µM]	TGI [1] [µM]	GI50 [2] [µM]	TGI [2]	GI50 [3] [µM]	TGI [3] [µM]	GI50 [4] [µM]	TGI [4]	GI50 [5] [µM]	TGI [5] [µM]	GI50 [6] [µM]	TGI [6]	GI50 [7] [µM]	TGI [7] [µM]	GI50 [8] [µM]	TGI [8] [µM]	GI50 [9] [µM]	TGI [9]	GI50 [10] [µM]	TGI [10] [µM]
Nc1c(C(=O)Nc2cccc(C(F)(F)F)c2)sc2nc3c(cc12)CCCCC3	5.56	> 100	31	> 100 µM	3.8	30.4	1.57	16 µM	3.17	22.9	4.32	35.5 µM	3.16	19.3	4.24	19.8	6.42	> 100 µM	1.83	4.47
O=CNc1ccc2c(c1)C(=O)c1ccccc1-2	–	> 100	–	> 100 µM	–	> 100	–	> 100 µM	–	> 100	–	> 100 µM	–	> 100	–	> 100	–	> 100 µM	–	> 100
CN(C)CC1CC/C(=C\c2ccc(O)cc2)C1=O (stereo unspecified)	–	3.53	–	25.5 µM	–	40.9	–	25.6 µM	–	21.5	–	4 µM	–	21.1	–	31.3	–	5.33 µM	–	9.01
O=C1CCCCN1c1ccccc1C#C/C=C\C#Cc1ccccc1C(F)(F)F	1.56	3.96	0.951	2.5 µM	3.75	> 50	1.28	3.7 µM	0.946	2.48	1.9	6.71 µM	7.26	> 50	> 50	> 50	2.04	46 µM	3.35	30.8
CC(C)[C@@H]1C=C2CC[C@H]3[C@](C)(CN)CCC[C@]3(C)[C@H]2CC1	3.39	13.8	1.63	3.03 µM	4.69	20.1	15.2	34.4 µM	2.62	7.32	2.57	11.7 µM	3.88	14.2	8.17	21.1	1.73	3.23 µM	12	25.3
CC1=C2C(=C[C@@](C)(CO)[C@@H]2O)C(=O)[C@](C)(O)C12CC2	0.342	–	–	0.0302 µM and 0.018 µM	–	0.0428	–	0.0507 µM and 0.0611 µM	–	0.0243	1.15	6.09 µM and 12.3 µM	–	0.0297	–	0.0921	–	0.074 µM and 0.129 µM	–	0.106
Nc1n[nH]c2cccc(C#Cc3cccc(C(=O)Nc4ccc(CN5CCOCC5)c(C(F)(F)F)c4)c3)c12	2.26	11.5	3	13.9 µM	2.19	8.23	1.14	7.81 µM	3.07	> 100	1.76	5.62 µM	2.07	5.81	3.36	35.5	2.89	12.7 µM	4.22	12.9
c1ccc(Sc2ncnc3ccccc23)cc1	2.9	61.4	15.4	28.7 µM	29.5	> 100	13.4	56.2 µM	11.8	35	9.49	37.6 µM	22.6	63	18.6	51.5	14.6	34.8 µM	27.6	> 100
C=C1C(=O)O[C@H]2[C@H]1CC/C(COC(=O)NCc1ccc(Cn3c(=O)sn(-c4ccc(OC)cc4)c3=O)cc1)=C\CC[C@@]1(C)O[C@@H]21	0.561	3.05	10.4	25.5 µM	2.92	14.2	12.9	30.7 µM	12.3	28.8	2.01	4.52 µM	3.19	9.46	11.7	24.6	1.77	3.61 µM	1.91	3.49
O=C(/C(=C/c1ccc([N+](=O)[O-])cc1)SCc1ccccc1)c1ccc(Cl)cc1	2.12	> 100	1.97	3.89 µM	2.4	8.2	4.53	34.1 µM	3.38	17.7	1.78	5.03 µM	15.3	32.5	3.59	15.6	1.83	4.15 µM	5.11	18.1
Cc1cc(I)cc(CN(CCCN(C)C)C(C)C)c1O	0.116	1.03	16.5	30.6 µM	18.1	35.6	25.7	> 100 µM	23.1	61.6	11.5	26.7 µM	18.2	35.7	18.4	42.5	17.3	31.6 µM	18.2	33.1
